Results taken from patent US20240383856A1 (Zedira GmbH, priority 2021, published 2024).
Like-named read-outs stand apart in the source and are kept apart here.

Target: T1, recombinant human transglutaminase 2 (Homo sapiens, UniProt P21980)
T1 construct: purchased Zedira T022
T1 sequence (P21980 1-687): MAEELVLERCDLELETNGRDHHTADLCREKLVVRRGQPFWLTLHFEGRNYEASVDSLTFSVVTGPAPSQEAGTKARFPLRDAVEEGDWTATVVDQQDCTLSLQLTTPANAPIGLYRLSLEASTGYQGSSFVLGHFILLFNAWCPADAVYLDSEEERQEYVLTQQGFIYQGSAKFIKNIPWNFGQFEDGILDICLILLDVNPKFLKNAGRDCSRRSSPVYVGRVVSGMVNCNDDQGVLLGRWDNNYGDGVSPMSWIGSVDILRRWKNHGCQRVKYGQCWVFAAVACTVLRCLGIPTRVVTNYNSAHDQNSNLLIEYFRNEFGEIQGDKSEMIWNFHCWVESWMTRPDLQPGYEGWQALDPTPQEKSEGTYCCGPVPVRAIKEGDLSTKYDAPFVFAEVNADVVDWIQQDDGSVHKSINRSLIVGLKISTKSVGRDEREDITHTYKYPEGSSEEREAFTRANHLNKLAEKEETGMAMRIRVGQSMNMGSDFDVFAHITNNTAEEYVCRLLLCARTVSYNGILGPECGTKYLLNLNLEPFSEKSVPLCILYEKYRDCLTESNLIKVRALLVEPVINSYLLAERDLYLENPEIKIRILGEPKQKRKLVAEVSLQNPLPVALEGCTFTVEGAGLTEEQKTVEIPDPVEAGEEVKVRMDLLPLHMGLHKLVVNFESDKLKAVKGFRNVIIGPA
Assay: Transglutaminase assay (DCC-assay): incorporation of dansylcadaverine into dimethylcasein
Type: biochemical
Method in brief: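 IC50 is the inhibitor level that blocks 50% of initial activity. Activity is the fluorescence slope (λex 330, λem 500 nm) between 20 and 30 min of a 37 °C run, relative to a 2% DMSO control. The enzyme is recombinant human tissue transglutaminase, 10 nM final, tested against a 1:2 inhibitor dilution series in a pH 8.0 mix with 10 mM CaCl2, 10 mM glutathione, 16.7 µM dansylcadaverine and 4 µM N,N-dimethylcasein.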

CNC(=O)C(=O)CC[C@H](NC(=O)c1oc2ccccc2c1C)C(=O)Nc1cccn(CC(=O)NC2C3CC4CC(C3)CC2C4)c1=O (stereo partly drawn) [II-3, (S)-N1-(1-(2-(2-adamantylamino)-2-oxoethyl)-2-oxo-1,2-dihydropyridin-3-yl)-N6-methyl-2-(3-methylbenzofuran-2-carboxamido)-5-oxohexanediamide]
IC90 (TG2, table with the PK study): 180 nM
IC50 (TG2, table with the PK study, read-out: IC50): 23 nM
IC50 (recombinant human TG2 10 nM, dansylcadaverine incorporation into dimethylcasein, read-out: IC50 TG2): < 40 nM
